The source of these data is US6004938A, “Inositolglycans having insulin-like action” (Hoescht Aktiengesellschaft, priority 1996, dated 1999).

In general, EC50 refers to the concentration that produces a half-maximal response.

The subject of assay [1] is rat fat cells. Nature of the assay: Lipogenesis in isolated rat fat cells (insulin-like activity). The class given is cell-based, rat (Wistar). To be noted: rat fat cells, 90 min, 37° C.; for EC50: concentration at 50% of the maximum stimulation achieved by the respective compound, read-out: Lipogenesis EC50; for Emax / Lipogenesis % Insmax: part of maximum stimulation factor of insulin (set at 100%), D-[3-3H]glucose; for Emax: read-out: Lipogenesis % Insmax. As to the method:
(§1) This example provides exemplary methods for determining insulin-like activity. The biological activity of the compounds of the formula I according to the invention is determined with the aid of isolated fat cells from the rat.
(§2) The preparation of fat cells from the rat was carried out as follows: White fatty tissue of the epididymis (Wistar rat, 160-180 g, no food restriction) is digested with collagenase and the resulting isolated fat cells are separated off by means of filtration of undigested tissue and washed by flotation several times using Krebs-Ringer-Henseleit buffer (KRH buffer).
This test determines the insulin-stimulable conversion of glucose into toluene-soluble products (triglycerides, phospholipids, fatty acids), which promotes glucose transport and triglyceride (glycerol-3-P synthesis, esterification)/phospholipid/fatty acid synthesis including the insulin signal transmission cascade. At a glucose concentration of 2.5 mM in the test, the esterification (and not the glycerol-3-P synthesis including glucose transport) is rate-determining for the stimulation of lipogenesis.
200 μl (3×10^5 cells/ml) of rat fat cells in KRH buffer are incubated at 37° C. for 90 min with 100 μl of D-[3-^3 H] glucose (25 mM, 0.4 μCi) in the presence or absence of insulin (10 ng/ml) or compound of the formula I according to the invention (final volume 1 ml). By addition of a toluene-soluble scintillation cocktail (10 ml), the cells are disrupted and the lipids are separated off from water-soluble products and the incubation medium. After phase separation, the radioactivity incorporated in lipid products is determined directly without removal of the aqueous phase by scintillation measurement ([^3 H]lipid [dpm×10^-3 ]). A control value (incubation under identical conditions but without cells) is subtracted from this radioactivity. The lipogenesis rate is linear up to 120 min. The maximum stimulation factor--this is the ratio of the incubation result with insulin to the incubation results without insulin--is set at 100%. The percentage data under "%Insmax " are parts of the maximum stimulation factor defined in this way. The term EC50 indicates the concentration of the compound of the formula I at which 50% of the maximum stimulation to be achieved by the respective compound of the formula I is to be observed.

Assay [2] deals with rat fat cells. As to the kind of experiment: Glucose transport in isolated rat fat cells (insulin-like activity). Particulars: rat fat cells, 2-[3H]-deoxyglucose; for Emax: 0.25 h, read-out: Glucose transport % Insmax; for Emax / Glucose transport % Insmax: part of maximum stimulation factor of insulin (set at 100%), 15 min, 37° C.; for EC50: concentration at 50% of the maximum stimulation achieved by the respective compound, read-out: Glucose transport EC50. Type of assay: cell-based, rat (Wistar). As to the method:
as §1, §2
[…] After addition of 15 μl of 2-[^3 H]-deoxyglucose (0.3 mM, 0.2 μCi), the incubation is continued at room temperature. After specified times (0-20 min), 100 μl of the test batch are removed and transferred to a reaction vessel (contents 400 μl), in which 250 μl of dinonyl phthalate have been initially introduced. After centrifugation (15,000×g, 1 min), the cells are separated off from the oily layer of the incubation medium underneath the oily layer by cutting the tube at the level of the oily layer and transferring to a scintillation vessel. After addition of 5 ml of water-soluble scintillation fluid, the radioactivity is determined. This total cell-associated radioactivity is corrected for [^3 H]-deoxyglucose which has passively diffused into the cells and is included in the cell interstices by subtraction of a control value (incubation in the presence of the glucose transport inhibitor cytochalasin B). The initial (stimulated) glucose transport rate is linear up to 15 min. The maximum stimulation factor--this is the ratio of the incubation result with insulin to the incubation result without insulin--is set at 100%.
The terms "%Insmax " and "EC50 " are as defined under A) lipogenesis.

As to `NC(=O)OC[C@H]1O[C@H](O[C@@H]2[C@@H](OC[C@H]3O[C@H](O[C@@H]4[C@@H](N)[C@H](O[C@H]5[C@H](O)[C@@H](O)[C@H](OP(=O)(O)O)[C@H](O)[C@@H]5O)O[C@H](CO)[C@H]4O)[C@@H](O)[C@@H](O)[C@@H]3O)O[C@H](COC(N)=O)[C@@H](O)[C@@H]2O)[C@@H](O[C@H]2O[C@H](CO)[C@@H](O)[C@H](O)[C@@H]2O)[C@@H](O)[C@@H]1O` [R, H2 N-CO-O-6Manα1(Manα1-2)-2Manα1(6-CO-NH2)-6Manα1-3GluNβ1-6(L)inositol-3-phosphate], the EC50 was found to be 15 µM in the assay with rat fat cells [1] (1.5 h) and 10 µM in the assay on rat fat cells [2]. Besides, the Emax in the assay on rat fat cells [1] (1.5 h) was determined as 48%; with rat fat cells [2], 19%.

As for `N[C@H]1[C@H](O[C@H]2[C@H](O)[C@@H](O)[C@H](OP(=O)(O)O)[C@H](O)[C@@H]2O)O[C@H](CO)[C@@H](O)[C@@H]1O[C@H]1O[C@H](CO[C@H]2O[C@H](CO[PH](=O)O)[C@@H](O)[C@H](O)[C@@H]2O[C@H]2O[C@H](CO[PH](=O)O)[C@@H](O)[C@H](O)[C@@H]2O[C@H]2O[C@H](CO)[C@@H](O)[C@H](O)[C@@H]2O)[C@@H](O)[C@H](O)[C@@H]1O` [T, HO-PO(H)O-6Manα1(Manα1-2)-2Manα1(6-PO(H)OH)-6Manα1-3GluNβ1-6(L)inositol-3-phosphate], the EC50 in the assay on rat fat cells [1] (1.5 h) was determined as 12 µM; with rat fat cells [2], 10 µM. Further, the results for the Emax in the assay with rat fat cells [1] (1.5 h) and in the assay with rat fat cells [2] were 72% and 30%, respectively.

For `N[C@H]1[C@H](O[C@H]2[C@H](O)[C@@H](O)[C@H](OP(=O)(O)O)[C@H](O)[C@@H]2O)O[C@H](CO)[C@@H](O)[C@@H]1O[C@H]1O[C@H](CO[C@H]2O[C@H](CO[PH](=O)O)[C@@H](O)[C@H](O)[C@@H]2O[C@H]2O[C@H](CO)[C@@H](O)[C@H](O)[C@@H]2O[C@H]2O[C@H](CO)[C@@H](O)[C@H](O)[C@@H]2O)[C@@H](O)[C@H](O)[C@@H]1O` [U, Manα1-2Manα1-2Manα1(6-PO(H)OH)-6Manα1-3GluNβ1-6(L)inositol-3-phosphate], in the assay with rat fat cells [1] (1.5 h), the EC50 is 15 µM and the Emax is 80%. Moreover, in the assay with rat fat cells [2], the Emax was 34% and the EC50 was 15 µM.

Turning to `N[C@H]1[C@H](O[C@H]2[C@H](O)[C@@H](O)[C@H](OP(=O)(O)O)[C@H](O)[C@@H]2O)O[C@H](CO)[C@@H](O)[C@@H]1O[C@H]1O[C@H](CO[C@H]2O[C@H](COS(=O)(=O)O)[C@@H](O)[C@H](O)[C@@H]2O[C@H]2O[C@H](CO)[C@@H](O)[C@H](O)[C@@H]2O[C@H]2O[C@H](CO)[C@@H](O)[C@H](O)[C@@H]2O)[C@@H](O)[C@H](O)[C@@H]1O` [V, Manα1(Manα1-2)-2Manα1(6-HSO3)-6Manα1-3GluNβ1-6(L)inositol-3-phosphate], in the assay with rat fat cells [1] (1.5 h), the EC50 was determined as 15 µM and the Emax is 83%. In addition, in the assay with rat fat cells [2], the Emax came to 48% and the concentration giving a half-maximal response (EC50) worked out at 15 µM.

As for `N[C@H]1[C@H](O[C@H]2[C@H](O)[C@@H](O)[C@H](OP(=O)(O)O)[C@H](O)[C@@H]2O)O[C@H](CO)[C@@H](O)[C@@H]1O[C@H]1O[C@H](CO[C@H]2O[C@H](COS(=O)(=O)O)[C@@H](O)[C@H](O)[C@@H]2O[C@H]2O[C@H](COS(=O)(=O)O)[C@@H](O)[C@H](O)[C@@H]2O[C@H]2O[C@H](CO)[C@@H](O)[C@H](O)[C@@H]2O)[C@@H](O)[C@H](O)[C@@H]1O` [W, HO-SO2 -O-6Manα1(Manα1-2)-2-Manα1(6-HSO3)-6Manα1-3GluNβ1-6(L)inositol-3-phosphate], the EC50 in the assay with rat fat cells [1] (1.5 h) and in the assay with rat fat cells [2] was 10 µM throughout. For the same compound, the Emax with rat fat cells [1] (1.5 h) was found to be 86%; in the assay with rat fat cells [2] it was 42%.

“H2 N-CO-6Manα1(Manα1-2)-2Manα1-6Manα1-4GluNβ1-6(D)-inositol-1,2-(cyclic)-phosphate [K]”: in the assay with rat fat cells [1], the EC50 was 8 µM and the “Lipogenesis % Insmax” value was determined as 72%. Also, in the assay with rat fat cells [2], the EC50 came to 15 µM and the “Glucose transport % Insmax” value stood at 23%.

With “HO-PO(H)O-6-Manα1(Manα1-2)-2-Manα1-6Manα-3GluNβ1-6(L)-inositol-3-phosphate”, in the assay with rat fat cells [1], the EC50 came out at 20 µM and the “Lipogenesis % Insmax” value turned out to be 32%. In the assay on rat fat cells [2], the EC50 amounted to 20 µM and the “Glucose transport % Insmax” value is reported as 18%.
